Results on one molecule are retold here after patent US20230226218A1, “Red Cell Extracellular Vesicles (RCEVs) Containing Cargoes and Methods of Use and Production Thereof” (ERYTECH PHARMA, priority 2020, published 2023).

What all share (assay type): cell-based, human
The subject of experiment [1] is THP1 macrophages. Briefly: Cytokine release by THP1 macrophages (BioLegend bead kit, flow cytometry). Here is the method: In a second approach, the levels of IL-1b, IL-6, TNF-α, and IFN-β were measured after THP1 macrophages were incubated with varying concentrations of STINGa, STINGa-CLRCEVs, or proRBC EVs.
[…] Supernatants were collected at 6 h and 24 h after stimulation and frozen until quantification. Supernatants were analyzed by flow cytometry using the BioLegend kit with four (4) different beads recognizing IL-1b, IL-6, TNF-α, IFN-β.
It has been reported that vesicles from packed red blood cell (pRBC) units bind to monocytes and induce proinflammatory cytokines, boosting T-cell responses in vitro (Danesh et al 2013). To test whether CLRCEVs and/or RCEVs would likewise induce these cytokines, THP1 macrophages were grown and treated as before and the levels of IL-6, IL-1b, and TNF-α were measured.
In general terms: In flow cytometry, cells or beads pass a laser one at a time.

For experiment [2], the system named is THP1-derived macrophages. The experiment can be described thus: pHrodo in vitro phagocytosis assay, THP1-derived macrophages. Conditions: 25k EVs/cell, STINGa 0.14 μg/ml, 48 h, FIG. 18-19. The source says:
To test the ability of the RCEVs and CLRCEVs to be taken up by immune cells, we developed an in vitro phagocytosis protocol based upon the THP1 monocyte cell line. Briefly, we determined THP1 cells could be effectively differentiated to become more macrophage-like by treating them with PMA for 3 days followed by 4 days of resting in culture media without PMA. Thereafter, we applied various test substances (e.g. EVs-STINGa, EVs-proRBC, free STINGa, each+/=a reporter dye) to either the undifferentiated or differentiated THP1 cells and observed the phagocytosis activity.
As shown schematically in FIG. 12, pHrodo®-labeled cells or vesicles (e.g. EVs) are added to phagocytic cells, but while they are outside of the cells, there is little to no fluorescence at the approximately pH 7.4 extracellular environment. When the relevant cellular receptors are engaged, a phagocytic cup forms around the labeled cells or vesicles. Finally, an acidic phagosome forms, causing the pHrodo® to emit fluorescence.
As an initial study, the THP1 cells were seeded as follows: 24,000, 34,000, and 44,000 cells/well. […] Labeled EVs-STINGa were added to differentiated THP1 cells and incubated for 12 h and the […] device was set to read the wells every 30 minutes. […] In these greyscale micrograms, the original red fluorescence appears black inside the cells. […]

The subject of experiment [3] is STING. Briefly: THP1-Dual IRF-Lucia luciferase reporter assay (QUANTI-Luc). The settings on record: 0.5, 1.0, 1.5, 2.0 μg/mL STINGa; 100k cells/well; 24 h. How it is done:
First, indirect measurements were made using the THP1-Dual™ cells (InvivoGen), which are derived from the human THP-1 monocyte cell line and contain a stably integrated inducible IRF-Lucia luciferase reporter construct that expresses luciferase when STING is activated (e.g. by STING agonists including CDN).
Briefly, 100k cells/well were seeded and then treated with different concentrations of free STING agonist (“STINGa”) (0.5, 1.0, 1.5, and 2.0 μg/mL), EVs-STINGa (also referred to as “ERY-STINGa-CLRCEV” or “STINGa-CLRCEV” throughout) (0.5, 1.0, 1.5, and 2.0 μg/mL, carried by the indicated amounts of EVs), and EVs-proRBC. After 24 h, the supernatants were recovered and subjected to QUANTI-Luc™ detection according to the manufacturer's instructions. […] If so, it is envisioned that the in vivo efficacy of EV-STINGa (or any EV-[immune modulator] for that matter) will depend upon the capacity of target cells for taking up the CLRCEVs. It is further envisioned that if the THP1-Dual monocytes had been differentiated into macrophages, the highest dose of EVs-STINGa would have elicited at least as much luciferase activity as the highest dose of free STINGa.
Background: In a reporter assay the amount or activity of a reporter protein is the signal.

For `Nc1ncnc2c1ncn2[C@@H]1O[C@@H]2COP(=O)([S-])O[C@@H]3[C@H](O)[C@@H](COP([O-])(=S)O[C@H]2[C@H]1O)O[C@H]3n1cnc2c(N)ncnc21.[Na+].[Na+]` (stereo partly drawn) [free STINGa, ADU-S100], the IFN-β in experiment [1] (3 μg/ml STINGa (EVs 7.6E10 EVs/mL), time not stated) is 140 pg/mL; in experiment [1] (8 μg/mL STINGa (EVs 2.0E11 EVs/mL), 6 h), 400 pg/mL; in experiment [1] (8 μg/mL STINGa (EVs 2.0E11 EVs/mL), 24 h), 318 pg/mL. The IL-6 in experiment [1] (2.5E+10 EVs/mL, STINGa 1 μg/ml) came to 25 pg/mL; in experiment [1] (5.0E10 EVs/mL, STINGa 2 μg/ml), 38 pg/mL; in experiment [1] (24 h, 2.0E11 EVs/mL, STINGa 8 μg/ml) it was 453 pg/mL. Besides, the “IL-1b release” value in experiment [1] (8, 2 or 1 μg/mL, 6 h and 24 h) was “did not induce the release of IL-1b”. For the same molecule, the “red fluorescence (uptake)” value in experiment [2] is “neither free STINGa+pHrodo nor pHrodo alone produced appreciable fluorescence”. The “luciferase activity (IRF pathway activation)” value in experiment [3] is given as “a clear dose response effect was observed”.
